Data published in the NIST ThermoML archive (doi:10.1021/je060271a).

Details: 303.15 K, Liquid, Vibrating tube method

CCCCCCCC(=O)OCC(COC(=O)CCCCCCC)(COC(=O)CCCCCCC)COC(=O)CCCCCCC [pentaerythritol tetraoctanoate]
Details | mass density [kg/m3]
2156.4 kPa | 956.7
2179.1 kPa | 956.6
2206.4 kPa | 956.8
2234.6 kPa | 956.8
2258 kPa | 956.7
2287 kPa | 956.8
2316.5 kPa | 956.9
2341.8 kPa | 956.8
2372.4 kPa | 956.7
2402.9 kPa | 957
2429.4 kPa | 956.7
2462 kPa | 956.8
2495.8 kPa | 956.9
2524.1 kPa | 957
2559.1 kPa | 956.9
2596.2 kPa | 957.1
2642 kPa | 957
2696.3 kPa | 957.1
2784.7 kPa | 957.1
2865.2 kPa | 957.2
2954.3 kPa | 957.3
3081.5 kPa | 957.2
3108.7 kPa | 957.4
3121.2 kPa | 957.4
3136.3 kPa | 957.4
3151.3 kPa | 957.4
3164 kPa | 957.4
3179.1 kPa | 957.5
3193.3 kPa | 957.4
3204.5 kPa | 957.4
3218.1 kPa | 957.4
3229.7 kPa | 957.4
3242.8 kPa | 957.4
3256.4 kPa | 957.5
3270.2 kPa | 957.4
3284.1 kPa | 957.5
3580.6 kPa | 957.6
3702.5 kPa | 957.6
3720 kPa | 957.5
3734.9 kPa | 957.7
3753.7 kPa | 957.7
3901.1 kPa | 957.9
4311.5 kPa | 958.1
4330 kPa | 958
4352.8 kPa | 958.1
4371.7 kPa | 958.1
4395.1 kPa | 958.1
4412.6 kPa | 958.1
4416.5 kPa | 958.2
4419.7 kPa | 958.2
4422.8 kPa | 958.2
4423.3 kPa | 958.2
4424.2 kPa | 958.1
4426.8 kPa | 958.2
4435.8 kPa | 958.1
4446.7 kPa | 958.3
4455.8 kPa | 958.2
4466.6 kPa | 958
4475.6 kPa | 958.1
4486.7 kPa | 958.2
4542.6 kPa | 958.3
4584.4 kPa | 958.1
4608.3 kPa | 958.4
4628.1 kPa | 958.3
4651.8 kPa | 958.3
4675.6 kPa | 958.3
4696.6 kPa | 958.2
4717 kPa | 958.3
4742.3 kPa | 958.4
4763.2 kPa | 958.3
4788.5 kPa | 958.3
4809.9 kPa | 958.5
4835.7 kPa | 958.4
4857.2 kPa | 958.4
4981.8 kPa | 958.4
5009.3 kPa | 958.4
5033 kPa | 958.5
5062 kPa | 958.5
5085.4 kPa | 958.5
5113.6 kPa | 958.5
5138.1 kPa | 958.6
5167.4 kPa | 958.5
5197.3 kPa | 958.7
5221.9 kPa | 958.5
5251.8 kPa | 958.7
5277.7 kPa | 958.7
5335.3 kPa | 958.6
5367.5 kPa | 958.6
5396 kPa | 958.7
5428.7 kPa | 958.7
5455.7 kPa | 958.7
5489.1 kPa | 958.8
5517.5 kPa | 958.8
5552 kPa | 958.7
5581.6 kPa | 958.8
5767 kPa | 959
5794 kPa | 959.1
5810.8 kPa | 959
5827.4 kPa | 959
5847.7 kPa | 959
5864.7 kPa | 959.1
5884.7 kPa | 959.1
5905.3 kPa | 959.1
5922.3 kPa | 959.1
5943.2 kPa | 959
5960.8 kPa | 959.2
5981.9 kPa | 959.1
5999.7 kPa | 959.2
6021.7 kPa | 959.2
6040 kPa | 959.2
6060.9 kPa | 959.1
6079.2 kPa | 959.1
6100.3 kPa | 959.1
6121.9 kPa | 959.2
6140.7 kPa | 959.2
6163.6 kPa | 959.3
6182 kPa | 959.2
6204.5 kPa | 959.3
6223.9 kPa | 959.3
6247 kPa | 959.2
6267.1 kPa | 959.2
6290.2 kPa | 959.3
6308.9 kPa | 959.3
6332.4 kPa | 959.2
6355.9 kPa | 959.3
6375.8 kPa | 959.2
6400.1 kPa | 959.3
6445.1 kPa | 959.4
6470.5 kPa | 959.3
6490.8 kPa | 959.3
6583.6 kPa | 959.4
6610.2 kPa | 959.4
6631.8 kPa | 959.5
6658.3 kPa | 959.5
6679.2 kPa | 959.5
6705.9 kPa | 959.6
6728.4 kPa | 959.5
6755.2 kPa | 959.5
6783 kPa | 959.5
6805.9 kPa | 959.6
6833.9 kPa | 959.6
6861.7 kPa | 959.7
6913.4 kPa | 959.7
7101.4 kPa | 959.8
7125.9 kPa | 959.9
7156.7 kPa | 959.7
7182.6 kPa | 959.8
7214 kPa | 959.8
